Data: patent US20220362348A1, “LACTOFERRIN, DERIVED PEPTIDE THEREOF AND METHOD THEREOF FOR INHIBITING AND/OR ALLEVIATING LIPID SYNTHESIS” (RENORIGIN INNOVATION INSTITUTE CO., LTD., priority 2021, published 2022)

Test system: Human sebocytes
Test: Neutral fat detection (Nile red staining, fluorescence intensity) in linoleic acid-induced sebocytes
Type: cell-based
Conditions: for concentration dependence of inhibition of LA-induced lipid content: FIGS. 1-4, lactoferrin 100-400 μg/mL, peptides 25-100 μg/mL
Description: Human sebocytes (Cat. No. 36079-01, Celprogen, Torrance, Calif., USA) were cultured in Dulbecco's Modified Eagle Medium (DMEM): Nutrient Mixture F-12 (DMEM/F12) purchased from Thermo Fisher Scientific Limited (Barrington, Ill., USA), 10% fetal bovine serum (FBS) purchased from Gibco, Grand Island, N.Y., USA and penicillin/streptomycin (100 IU/50 […]), incubated at 37° C. in the 5% CO2 atmosphere.
Human sebocytes were implanted in 24- or 96-well plates. After 24 hours of culture, the cells were divided into a negative control group, a positive control group and an experimental group. […] The treated human sebocytes were cultured for two days. Human sebocytes were fixed with 4% formaldehyde at room temperature. After 60 minutes of fixation, the cells were washed with PBS and stained with Nile Red solution (1 μg/ml in PBS) at 37° C. for 15 minutes. Next, the cells were washed and observed under a fluorescent microscope. Fluorescence intensity is measured with fluorometer Spectra Max i3.

[1] = FIG. 5, 0.1 mM LA + 50 μg/mL peptide
[2] = FIG. 5, 0.1 mM LA + 50 μg/mL peptide, negative control about 1.0, positive control about 2.5
[3] = FIGS. 2-4, 0.1 mM LA + 25 to 100 μg/mL peptide
[4] = FIGS. 2-4 D, 0.1 mM LA + 25 μg/mL peptide, two days, negative control about 1.0
[5] = FIGS. 2-4 D, 0.1 mM LA + 50 μg/mL peptide, two days, negative control about 1.0
[6] = FIGS. 2-4 D, 0.1 mM LA + 100 μg/mL peptide, two days, negative control about 1.0

Row | Compound | lipid content reduced compared with positive control group (LA) [1] | fluorescence intensity (lipid content, Nile red) [2] | concentration dependence of inhibition of LA-induced lipid content | lipid content reduced compared with positive control group (LA) [3] | fluorescence intensity (lipid content, Nile red) [4] | fluorescence intensity (lipid content, Nile red) [5] | fluorescence intensity (lipid content, Nile red) [6] | lipid content induced by LA relative to negative control group (0.1 mM linoleic acid (LA) alone)
1 | lactoferrin peptide 69-75: Derived peptide of lactoferrin comprising the amino acid sequence of SEQ ID NO: 02 (RDPYKLR; Lactoferrin derived peptide) | 40% | about 1.5 | dose-dependent manner | 25% | about 1.5 | about 1.5 | about 1.5 | 
2 | lactoferrin peptide 695-701: Derived peptide of lactoferrin comprising the amino acid sequence of SEQ ID NO: 04 (KKCSTSP; Lactoferrin derived peptide) | 40% | about 1.5 | dose-dependent manner | 25% | about 1.5 | about 1.5 | about 1.5 | 
3 | CCCCC/C=C\C/C=C\CCCCCCCC(=O)O [LA, linoleic acid, reference compound] |  |  |  |  |  |  |  | more than 2 times
4 | lactoferrin peptide 85-91: Derived peptide of lactoferrin comprising the amino acid sequence of SEQ ID NO: 03 (KESPQTH; Lactoferrin derived peptide) | 40% | about 1.5 | dose-dependent manner | 25% | about 1.5 | about 1.5 | about 1.5 | 
